PubChem BioAssay AID179 (DTP/NCI, 2004)
pEC50, pIC50: −log10 of the molar value. Activity calls are given as the source filed them.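 The calls were made as follows: active = compounds giving half or more protection of infected cells from virus-caused growth loss, again on retest; inactive = the rest.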

Tested on: CEM cells HIV-1 protection, formazan growth assay
Experiment: NCI AIDS Antiviral Assay
Settings: for pIC50: measured here: growth of uninfected CEM cells
How it was run: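 Soluble formazan readout of cell growth; CEM cells ± HIV-1; 5 drug concs. ≥50% protection → retest; ≥50% again = moderately active; reproducible 100% = confirmed active.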

Row | Structure (SMILES) | outcome | pEC50 | pIC50
1 | COc1cc(C2OCC3C(c4ccc(O)c(OC)c4)OCC23)ccc1O (stereo not given) | inactive | – | –
2 | COC1=CC(=O)[C@]2(C)[C@H](C1=O)C(C)[C@H]2c1ccc(OC)cc1 (stereo not given in full) | – | < 4.06 | < 4.06
3 | CCOC(=O)C1=NN(c2ccccc2)C(=O)/C1=C\N1C(=O)CC(=O)NC1=S | – | < 3.70 | 3.71
4 | Cc1[nH]c2ccccc2c1C1Cc2ccccc2N1C(=O)/C=C/C=C/c1ccccc1 (stereo not given) | – | < 5.03 | < 5.03
5 | CC1(C)/C(=N\O)C2(C#N)CCC1C2 (stereo not given) | – | < 3.70 | 3.78
6 | N#Cc1c(N)nc(-c2ccc(Cl)cc2)c2c1-c1ccccc1S(=O)(=O)CC2 | – | < 4.00 | < 4.00
7 | O=C(NN1C(=O)C(Cl)C1c1ccccc1O)c1ccccc1O (stereo not given) | – | < 4.25 | 5.08
8 | CCOc1ccccc1N=NC1C(=O)N(C(=O)CC(=O)Nc2ccccc2C)N=C1C (stereo not given) | – | < 3.70 | < 3.70
9 | CCN(CCO)CC1COc2ccccc2O1 (stereo not given) | – | < 3.70 | < 3.70
10 | O=C1CC2[C@@H](N3CCCC3)CCC(N1Cc1ccccc1)C2(O)O (stereo not given in full) | – | < 3.70 | < 3.70
11 | N#Cc1nc(-c2ccc(-c3nc(C#N)c(N)o3)cc2)oc1N | – | < 3.70 | < 3.70
12 | N#C/C(=C\c1ccccc1)c1cccc(F)c1 | – | < 3.70 | 4.33
13 | Cc1ccc(S(=O)(=O)OC2C3C=CC2C2CSCC32)cc1 (stereo not given) | – | < 4.00 | < 4.00
14 | Cc1cc([C@H](C#N)c2nc3ccccc3[nH]2)nc(Cl)n1 | – | < 3.70 | 4.65
15 | O=[N+]([O-])c1ccc(N=Nc2c(F)cc(NCS(=O)(=O)O)cc2F)cc1 | – | < 4.00 | < 4.00
16 | N/C(Cc1ccc(Cl)cc1)=N/O | – | < 3.70 | < 3.70
17 | O=C1C(c2c[nH]c3ccccc23)=Nc2ccc(Br)cc21 | – | < 4.70 | 5.23
18 | O=P(O)(Cc1ccccc1)OCC1(O)OCC(O)C(O)C1O (stereo not given) | – | < 3.70 | < 3.70
19 | COC(=O)/C=C1\C(CO)OC(n2ccc(=O)[nH]c2=O)C1O (stereo not given) | – | < 3.70 | < 3.70
20 | COC(=O)C1=C(C(=O)OC)SC2(S1)C(C(=O)OC)=C(C(=O)OC)Sc1c2ssc1=O | – | < 6.70 | 7.24
21 | CCOC(=O)C1(C(=O)OCC)C(C(C)(C)C)=C(C)c2ccccc21 | – | < 4.30 | 4.69

Row | Structure (SMILES) | outcome | pEC50 | pIC50
22 | O=C(/C=C/c1ccc(O)c(O)c1)OC1C[C@@](O)(C(=O)O)C[C@@H](O)[C@H]1OC(=O)/C=C/c1ccc(O)c(O)c1 (stereo not given in full) | – | < 3.46 | 3.81
23 | Cc1ccc(/C=C/C(=O)c2c([O-])on[n+]2-c2ccccc2)cc1 | – | < 3.70 | 5.58
24 | O=C(c1ccccc1)N1C(=O)c2ccccc21 | – | < 3.79 | 4.31
25 | CC1(CO)OC(n2cc(C(=O)NC(=O)OCc3ccccc3)c(=O)[nH]c2=O)CC1O (stereo not given) | – | < 3.22 | 3.43
26 | Cc1cc(NS(=O)(=O)c2ccc(NC(=O)c3cccc4c(Nc5ccc(S(=O)(=O)Nc6cc(C)on6)cc5)c5ccccc5nc34)cc2)no1 | – | < 4.44 | < 4.44
27 | OCCN(CCO)c1cccc(N(CCO)CCO)c1 | inactive | – | –
28 | CN(C)c1ccc(/C=C(\C#N)c2ccccc2Br)cc1 | – | < 4.39 | 5.40
29 | O/N=C1/CCC/C1=C\c1ccccc1 | inactive | – | –
30 | CCC(C(=O)OC)C1CCN(C)C(=O)C12CO2 (stereo not given) | – | < 2.99 | < 2.99
31 | CC12C=NNC1(C)C(=O)C1(C)CN=NC1(C)C2=O (stereo not given) | – | < 3.70 | < 3.70
32 | CC(C)NC(=O)OCCN=c1c2ccccc2ccc2ccccc12 | – | < 3.70 | 4.03
33 | Cc1cccc2c(=O)c3ccccc3oc12 | – | < 3.77 | < 3.77
34 | CCC(C)C(NC(=O)c1ccccc1SC(=O)OCCCC[n+]1ccccc1)C(N)=O (stereo not given) | inactive | – | –
35 | CC(=O)n1c2ccccc2c2nc3nc(Oc4ccc(C)cc4)c4ccccc4c3cc21 | – | < 5.18 | < 5.18
36 | CCN(CCN(CC)C(=O)Nc1ccccc1)C(=O)Nc1ccccc1 | – | < 3.70 | < 3.70
37 | COC(=O)C1CC(F)(F)[C@H]1n1cnc2c(N)ncnc21 (stereo not given in full) | – | < 3.62 | < 3.62
38 | COc1cc(-c2ccc(N=Nc3cc(S(=O)(=O)O)c4ccccc4c3O)c(OC)c2)ccc1N=Nc1cc(S(=O)(=O)O)c2ccccc2c1O | – | 3.87 | 3.85
39 | Cc1nnc2nc(-c3ccccc3)nc(-c3ccccc3)n12 | – | < 3.70 | < 3.70
40 | CN(C)CCC(=O)C(=Cc1ccc(O)cc1)C(=O)CCN(C)C | – | < 3.19 | 4.36
41 | N#Cc1cn(-c2c3ccccc3nc3ccccc23)c(=O)[nH]c1=O | – | < 3.67 | 6.54
42 | CCN(CC)C(=O)C(C)=O | – | < 2.76 | < 2.76
